Patent publication US20260283162A1, “INDOLEACETIC ACID-ENRICHED ALGAE EXTRACT” (FICOSTERRA, S.L., priority 2023, published 2026)
Values after ≈ are worked out from the molar mass of the structure shown.

Assay: Solubility limit of IAA in water
Type: physicochemical
Conditions: apparent, from the IAA concentration in the aqueous extract

Q: With O=C(O)Cc1c[nH]c2ccccc12 [IAA, indole-3-acetic acid] as the molecule, how does the solubility read?
A: The solubility was ~17 µg/mL (≈ 97 µM).
